Several values for one entry are separate records, joined by “and”; a condition that tells them apart may be missing. Equal entries are not always repeated. Where two headings read alike, the source gives them in different places.
Key:
[1] = tested on: K562, Jurkat, HeLa, Sk-mel-2, MCF-7 and CT26 cell lines; assay: MTS cell proliferation assay, panel of cell lines (summary statements); assay type: cell-based
Experimental: Cancer cell lines are valuable in vitro model systems that are widely used in cancer research and drug discovery. Their use is mainly linked to their possibility to provide for experimental purposes an unlimited source of biological material. Here, the 24 and 72 h in vitro MTS assay was used to determine the antiproliferative activity of synthesized spiro-fused cyclopropa[a]pyrrolizidine-2,3′-oxindoles and [3-azabicyclo[3.1.0]hexane]-oxindoles against human erythroleukemia (K562), acute T cell leukemia (Jurkat), cervical carcinoma (HeLa), melanoma (Sk-mel-2), breast cancer adenocarcinoma (MCF-7) as well as mouse colon carcinoma (CT26) cell lines. […] The full results of these investigations are presented in the Supporting Information Figures S1–S6. […] An evaluation of the cytotoxicity of the selected compounds towards normal cells (peripheral blood mononuclear cells) was performed additionally to understand their respective relative selectivities. The selectivity index was obtained using the ratio of measured cytotoxicity between the PBMC cells and each of the cancer cell lines, and the results are presented in Table 3.
The human erythroleukemia (K-562), cervical carcinoma (HeLa) as well as mouse colon carcinoma (CT26) cell lines were obtained from the Bank of Cell Cultures of the Institute of Cytology of the Russian Academy of Sciences; the human melanoma (Sk-mel-2) cell line was obtained from the Bank of Cell Cultures of the Institute of Cytology and Genetics, Siberian Branch of the Russian Academy of Sciences. The acute T cell leukemia (Jurkat) cell line was obtained from the Bank of Cell Cultures of the Institute of Immunology of the Russian Academy of Medical Sciences. The peripheral blood mononuclear cells (PBMC) were isolated from the blood of healthy donors. K-562, Jurkat, MCF-7, PBMC and CT26 cells were grown on RPMI medium (Hyclone, GE Healthcare Life Sciences, Logan, UT, USA) supplemented with 10% (v/v) fetal bovine serum (Hyclone, GE Healthcare Life Sciences, Logan, UT, USA) and gentamicin (Sigma-Aldrich, St. Louis, MO, USA) at 37 °C in a humidified atmosphere with 5% CO2. HeLa and Sk-mel-2 cells were cultured with the same supplements and conditions in DMEM medium (Hyclone, GE Healthcare Life Sciences, Logan, UT, USA).
To evaluate the in vitro toxicity of the compounds synthesized, cells were seeded into 96-well plates at a density of 5 × 10^3 cells per well. On the next day, the tested compounds were added to the wells at concentrations ranging from 1 to 30 μg/mL, followed by incubation for 1 and 3 days. Cell proliferation was determined by adding 20 μL of MTS reagent (BioVision, Milpitas, CA, USA) stock solution per well. The plates were incubated for 2 h at 37 °C in a humidified, 5% CO2 atmosphere. The plates were then read at 495 nm using a plate spectrophotometer (Multiskan GO, Thermo Fisher Scientific, Waltham, MA, USA). All samples were measured in triplicate.

[2] = tested on: human melanoma (Sk-mel-2) cell line; assay: Cell motility by scratch test; assay type: cell-based; conditions: 10 μg/mL, 36 h, serum-free DMEM; nontreated cells 69.5 ± 17.2
Experimental: To assess the potential ability of spiro-fused [3-azabicyclo[3.1.0]hexane]oxindoles 4, 11, 12, 18, 24 and cyclopropa[a]pyrrolizidine-2,3′-oxindole 2 to inhibit metastasis associated with cell motility, a scratch test was performed on the human melanoma (Sk-mel-2) cell line. Different fields were analyzed by bright field, and each scratch area was photographed at 0 and 36 h for non-toxic and fast cell visualization. Nontreated Sk-mel-2 cells filled 69.5 ± 17.2, 41.5 ± 5.3, 59.7 ± 8.1, 49.3 ± 5.3, 43.0 ± 12.6, 26.1 ± 2.5 and 55.9 ± 8.6% of the scratched strip while under treatment with spiro-fused oxindole derivatives 2, 4, 11, 12, 18 and 24 cells, respectively.
Cells were seeded at a density of 5 × 10^5 cells per dish onto petri dishes and grown to confluency. A 200 μL pipette tip was used to make scratch wounds and detached cells were removed after that by washing with phosphate-buffered saline. Culture media was replaced with serum-free DMEM in order to inhibit cell proliferation. Compounds to be screened were added at a dose of 10 μg/mL to the cultures and incubated for 36 h. Different fields were analyzed by bright field, and each scratch area was photographed at 0 and 36 h. Images were captured using an Axio Observer Z1 confocal microscope (Carl Zeiss MicroImaging GmbH, Jena, Germany). The percent of wound closure in five randomly chosen fields was calculated with ImageJ software, 1.52v.

K562 cells = assay: Cell cycle analysis by flow cytometry; assay type: cell-based, human; conditions: 24 h; for K562 cells in SubG1 phase: control 4.5 ± 0.9; for K562 cells in G2/M phase: control 23.1 ± 1.7; for K562 cells in S phase: control 31.9 ± 1.0; for K562 cells in G0/G1 phase: control 40.5 ± 1.3; for Total percentage of K562 cells in the SubG1 and G0/G1 phases: control 45.0%
Source text: Since growth inhibition may be a result of cell cycle arrest at a particular point, the specific antiproliferative activity of several cycloadducts was further evaluated by flow cytometry to study their impact on the progression of the cell cycle in K562 cells. The assay utilizes propidium iodide-based staining of DNA content to distinguish and measure the accumulation of cells in each cell cycle phase (SubG, G0/G1, S and G2/M).
The distribution of K562 cells in the G0/G1-, S- and G2/M-phases of the cell cycle was obtained by quantification of DNA content using flow cytometry in DAPI-stained cells. Briefly, cells were seeded at a density of 5 × 10^4 cells per well in 24-well plates. […] After incubation with drugs, the cells were harvested by pipetting. This was followed by treatment with 0.2 mg/mL saponin (Fluka, Waltham, MA, USA) and 0.05 mg/mL DAPI (Thermo scientific, Rockford, IL, USA). After washing, the samples were analyzed using a standard flow cytometer (BD FACSCanto II, Becton Dickinson, San Jose, CA, USA). A total of 10,000 events were acquired for the samples. Data processing was performed using the BD FACSDiva 9.0 software.

[3] = 72 h, range over four cell lines and compounds, read-out: IC50 against the Jurkat, K-562, HeLa and Sk-mel-2 cell lines

| Compound | IC50 ([1]; range over cell lines, except for the breast cancer cell line, read-out: IC50 over the tested cell lines) | Part of the scratched strip filled by Sk-mel-2 cells [2] | K562 cells in SubG1 phase (K562 cells; 5 μg/mL) | K562 cells in G2/M phase (K562 cells; 5 μg/mL) | K562 cells in S phase (K562 cells; 5 μg/mL) | K562 cells in G0/G1 phase (K562 cells; 5 μg/mL) | K562 cells in SubG1 phase (K562 cells; 10 μg/mL) | K562 cells in G2/M phase (K562 cells; 10 μg/mL) | K562 cells in S phase (K562 cells; 10 μg/mL) | K562 cells in G0/G1 phase (K562 cells; 10 μg/mL) | Total percentage of K562 cells in the SubG1 and G0/G1 phases (K562 cells; 10 μg/mL) | K562 cells in SubG1 phase (K562 cells; 20 μg/mL) | K562 cells in G2/M phase (K562 cells; 20 μg/mL) | K562 cells in S phase (K562 cells; 20 μg/mL) | K562 cells in G0/G1 phase (K562 cells; 20 μg/mL) | IC50 [1, 3] |
| --- | --- | --- | --- | --- | --- | --- | --- | --- | --- | --- | --- | --- | --- | --- | --- | --- |
| O=C1Nc2ccc([N+](=O)[O-])cc2C12N1CCCC1C1(c3ccccc3)C(c3ccccc3)C12c1ccccc1 (stereo not shown) [Compound 2] | 2 µg/mL to 12 µg/mL and 4 µM to 23 µM | 41.5 ± 5.3% | 5.3 ± 0.3% | 17.4 ± 0.4% | 29.5 ± 0.6% | 47.7 ± 0.5% | 7.7% and 7.7 ± 0.4% | 7.8 ± 0.3% | 15.6 ± 0.4% | 68.8 ± 0.5% | 74.0–77.5% | 5.8 ± 0.3% | 7.3 ± 0.2% | 14.5 ± 0.2% | 72.5 ± 0.5% |  |
| COC(=O)C1C2(c3ccccc3)C(Cc3ccc(O)cc3)NC3(C(=O)Nc4ccccc43)C12c1ccccc1 (stereo not shown) [Compound 17] |  |  | 2.5 ± 0.3% | 16.7 ± 1.0% | 25.1 ± 0.4% | 55.6 ± 0.3% | 5.3 ± 0.4% | 8.8 ± 0.4% | 14.3 ± 0.1% | 71.5 ± 0.5% | 74.0–77.5% | 1.8 ± 0.2% | 7.2 ± 0.3% | 16.4 ± 0.5% | 74.5 ± 0.8% |  |
| CC(C)C1NC2(C(=O)Nc3ccccc32)C2(c3ccccc3)C(c3ccccc3)C12c1ccccc1 (stereo not shown) [Compound 8] |  |  | 2.1 ± 0.1% | 9.2 ± 0.3% | 25.7 ± 0.1% | 63.1 ± 0.4% | 4.1 ± 0.2% | 5.9 ± 0.2% | 16.6 ± 0.2% | 73.5% and 73.5 ± 0.5% | 74.0–77.5% | 3.6 ± 0.2% | 7.1 ± 0.1% | 17.0 ± 0.2% | 72.4 ± 0.2% | 2 to 10 µM |
| NC(=O)CC1NC2(C(=O)Nc3ccccc32)C2(c3ccccc3)C(c3ccccc3)C12c1ccccc1 (stereo not shown) [Compound 18] |  | 26.1 ± 2.5% | 3.2 ± 0.1% | 14.4 ± 0.5% | 31.4 ± 0.1% | 51.0 ± 0.7% | 3.9 ± 0.2% | 7.0 ± 0.4% | 19.0 ± 0.6% | 70.1 ± 0.5% | 74.0–77.5% | 3.6 ± 0.1% | 8.6 ± 0.3% | 22.8 ± 0.4% | 65.0 ± 0.4% | 2 to 10 µM |
| CSCCC1NC2(C(=O)Nc3ccccc32)C2(c3ccccc3)C(c3ccccc3)C12c1ccccc1 (stereo not shown) [Compound 24] |  | 55.9 ± 8.6% |  |  |  |  |  |  |  |  |  |  |  |  |  | 2 to 10 µM |
| CC[C@H](C)C1NC2(C(=O)Nc3ccccc32)C2(c3ccccc3)C(C(=O)OC)C12c1ccccc1 (stereo partly shown) [Compound 4] |  | 59.7 ± 8.1% | 4.3 ± 0.2% | 16.5 ± 0.2% | 26.6 ± 0.7% | 52.6 ± 0.7% | 4.8 ± 0.5% | 11.9 ± 0.6% | 26.4 ± 0.3% | 56.9 ± 0.6% |  | 4.9 ± 0.2% | 6.9 ± 0.4% | 17.4 ± 0.4% | 71.2 ± 0.4% | 2 to 10 µM |

Reference: paper PMC11680018, “Study of Cytotoxicity of Spiro-Fused [3-Azabicyclo[3.1.0]hexane]oxindoles and Cyclopropa[a]pyrrolizidine-oxindoles Against Tumor Cell Lines” (Pharmaceuticals, 2024)
